Measurements published in patent US20040235849A1, “Tetrahydroquinoxalines acting as bradykinin antagonists” (priority 2001, published 2004).

Target: T1, human B1 receptor (Homo sapiens, UniProt P46663)
T1 construct: expressed in transfected cells
T1 sequence (P46663 1-353): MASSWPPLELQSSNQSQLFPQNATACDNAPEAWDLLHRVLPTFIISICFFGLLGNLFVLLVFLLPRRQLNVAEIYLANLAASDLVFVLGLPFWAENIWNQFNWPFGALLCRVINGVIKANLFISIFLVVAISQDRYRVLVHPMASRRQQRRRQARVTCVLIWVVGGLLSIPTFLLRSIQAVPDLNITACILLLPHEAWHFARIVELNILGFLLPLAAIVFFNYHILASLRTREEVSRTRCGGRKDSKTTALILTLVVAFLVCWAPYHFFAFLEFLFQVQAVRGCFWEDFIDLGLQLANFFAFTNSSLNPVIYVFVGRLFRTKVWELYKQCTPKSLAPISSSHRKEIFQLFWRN
Assay: Functional in vitro assay: B1 receptor antagonism measured via agonist-induced intracellular calcium release in recombinant cell lines
Assay type: cell-based
Settings: stable cell lines, e.g. CHO or HEK 293, recombinantly expressing the human B1 receptor
Description: 1. Functional in vitro Assay
Agonists such as des-Arg9-BK and des-Arg10-kallidin activate the B1 receptor and lead, via stimulation of phospholipase C, to release of calcium ions from intracellular stores. Antagonists block the activation of the receptor by the agonists and thus also the agonist-dependent stimulation of phospholipase C and the intracellular calcium release induced thereby.
A functional in vitro assay can be carried out with stable cell lines, e.g. CHO or HEK 293, which recombinantly express the human B1 receptor. This entails measuring the activation of the receptor by the agonist indirectly via the intracellular calcium release induced thereby (in microtiter plates with 96, 384 and 1536 wells/plate). The effect of the tested substances can be stated as IC50.

Row | Compound | IC50 [nM]
1 | O=C(CC1C(=O)Nc2ccccc2N1S(=O)(=O)c1ccc(Cl)cc1Cl)NC1CCCCCC1 (centres unmarked) [Example 177] | 17
2 | O=C(CC1C(=O)Nc2ccccc2N1S(=O)(=O)c1cc(Cl)ccc1Oc1ccc(Cl)cc1)NC1CCCCCC1 (centres unmarked) [Example 170] | 25
